# Experimental data as given in patent US12168929B2, “Quantifying zonal flow in multi-lateral wells via taggants of fluids” (Saudi Arabian Oil Company, priority 2023, dated 2024).
# Legend:
# [1] = Solubility of Lumogen F dyes in organic solvents (toluene); format: physicochemical; settings: organic solvent or mixture
# [2] = cited from earlier work
# [3] = Methanol solubility of LR versus non-polar crude oil fractions; format: physicochemical; settings: non-polar crude oil fractions showed poor MeOH solubility
# Description: To enhance the detection sensitivity further for LR, the fluorescent non-polar fractions of crude oil coeluted with LR during the chromatography may be removed or partially removed from the resulting effluent mixtures. While the polar components of crude oil can be effectively separated using the gravity column chromatography over silica gel with 100% DCM, the separation of the non-polar crude oil components remains a challenge because of its similar polarity with LR, identified by the Rf value on TLC. Therefore, explored was the second step of purification and isolation of the product by utilizing the solubility difference between LR and the non-polar crude oil components. […] Therefore, in subsequent work, DCM from the resulting effluent was evaporated and then the dark viscous residues were re-dissolved in 1 mL of MeOH followed by sonication for 30 seconds.
Structure (SMILES),solubility [1] [µg/mL],solubility in organic solvents [2],also measured
"CCCCC(CC)CN1C(=O)c2ccc(OC)c3c(OC)ccc(c23)C1=O (centres unmarked) [LV, 2-(2-ethylhexyl)-6,7-dimethoxybenzo[de]isoquinoline-1,3-dione]",10000,,
COc1cc(/C=C/C(=O)CC(=O)/C=C/c2ccc(O)c(OC)c2)ccc1O [curcumin],,soluble,
"CC(C)COC(=O)c1ccc2c3ccc(C#N)c4c(C(=O)OCC(C)C)ccc(c5ccc(C#N)c1c52)c43 [LY, bis(2-methylpropyl) 4,10-dicyanoperylene-3,9-dicarboxylate]",< 1000,,
"CCN(CC)c1ccc2nc3c4ccccc4c(=O)cc-3oc2c1 [NR, Nile Red]",,,"solubility in organic solvents such as DCM and toluene ([2]; DCM, toluene): highly soluble"
"CC(C)c1cccc(C(C)C)c1N1C(=O)c2cc(Oc3ccccc3)c3c4c(Oc5ccccc5)cc5c6c(cc(Oc7ccccc7)c(c7c(Oc8ccccc8)cc(c2c37)C1=O)c64)C(=O)N(c1c(C(C)C)cccc1C(C)C)C5=O [LR, 7,18-bis[2,6-di(propan-2-yl)phenyl]-11,14,22,26-tetraphenoxy-7,18-diazaheptacyclo[14.6.2.2^2,5.0^3,12.0^4,9.0^13,23.0^20,24]hexacosa-1(22),2(26),3,5(25),9,11,13,15,20,23-decaene-6,8,17,19-tetrone]",80000,,solubility in methanol (MeOH) [3]: moderately soluble
"CC[N+](CC)=c1ccc2nc3c(cc(N)c4ccccc43)oc-2c1 [NB, Nile Blue]",,relatively low,solubility in water ([2]; water): highly soluble
